Results: PubChem BioAssay AID192 (DTP/NCI, 2004)
“And” between values parts separate entries of the source, which are not always exact repeats. Equal values may be shown once. Toxic doses and inconclusive results are not listed.

System: BDF1 mice, B16 melanoma ip, median survival T/C
Assay: NCI In Vivo Anticancer Drug Screen. Data for tumor model B16 Melanoma (intraperitoneal) in B6D2F1 (BDF1) mice
Settings: endpoint: median survival time, higher = longer survival
Outline: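 The ratio T/C compares compound-treated mice with vehicle-treated controls, using survival or tumor size as the endpoint in a transplantable tumor model.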

[1] = dose: 100.0 mg/kg/injection, schedule: Q01DX009 (ip), vehicle: saline
[2] = dose: 200.0 mg/kg/injection, schedule: Q01DX009 (ip), vehicle: saline
[3] = dose: 400.0 mg/kg/injection, schedule: Q01DX009 (ip), vehicle: saline

How did the T/C (dose: 2.5 mg/kg/injection, schedule: Q01DX007 (ip), vehicle: water) turn out when `COc1cccc2c1C(=O)c1c(O)c3c(c(O)c1C2=O)CC(O)(C(C)=O)CC3OC1CC(N)C(O)C(C)O1` (stereo not drawn) was run?
Its T/C is 154 % of control.

And the T/C (dose: 2.5 mg/kg/injection, schedule: Q01DX009 (ip), vehicle: water)?
Its T/C is 163 % of control.

And the T/C (dose: 5.0 mg/kg/injection, schedule: Q01DX007 (ip), vehicle: water)?
Its T/C is 154 % of control.

And the T/C (dose: 5.0 mg/kg/injection, schedule: Q01DX009 (ip), vehicle: water)?
Its T/C is 190 % of control.

What about the T/C (dose: 5.8 mg/kg/injection, schedule: Q01DX009 (ip), vehicle: saline) of the same molecule?
The T/C was 258 % of control.

What about the T/C (dose: 10.0 mg/kg/injection, schedule: Q01DX007 (ip), vehicle: water) of the same molecule?
The T/C was 163 % of control.

And the T/C (dose: 10.0 mg/kg/injection, schedule: Q01DX009 (ip), vehicle: water)?
Its T/C is 218 % of control.

What about the T/C (dose: 11.7 mg/kg/injection, schedule: Q01DX009 (ip), vehicle: saline) of the same molecule?
The T/C was 122 % of control and 267 % of control.

What about the T/C (dose: 20.0 mg/kg/injection, schedule: Q01DX007 (ip), vehicle: water) of the same molecule?
The T/C was 339 % of control.

What about the T/C (dose: 20.0 mg/kg/injection, schedule: Q01DX009 (ip), vehicle: water) of the same molecule?
The T/C was 231 % of control.

And the T/C (dose: 23.4 mg/kg/injection, schedule: Q01DX009 (ip), vehicle: saline)?
Its T/C is 116 % of control and 267 % of control.

What about the T/C (dose: 23.4 mg/kg/injection, schedule: Q04DX003 (ip), vehicle: saline) of the same molecule?
The T/C was 212 % of control.

And the T/C (dose: 46.8 mg/kg/injection, schedule: Q04DX003 (ip), vehicle: saline)?
The T/C was 275 % of control.

What about the T/C (dose: 93.6 mg/kg/injection, schedule: Q04DX003 (ip), vehicle: saline) of the same molecule?
The T/C was 275 % of control.

Which T/C (dose: 0.75 mg/kg/injection, schedule: Q01DX009 (ip), vehicle: saline) does the source give for `C=CCN1C(=O)C=CC1=O` here?
The T/C was 102 % of control.

What about the T/C (dose: 1.5 mg/kg/injection, schedule: Q01DX009 (ip), vehicle: saline) of the same molecule?
The T/C was 93 % of control.

Which results are given for `CC(C)(C)C(=O)CC(=O)C(F)(F)C(F)(F)C(F)(F)F.[Ag]`?
T/C (dose: 6.25 mg/kg/injection, schedule: Q01DX009 (ip), vehicle: saline with Tween-80): 97 % of control; T/C (dose: 12.5 mg/kg/injection, schedule: Q01DX009 (ip), vehicle: saline with Tween-80): 94 % of control; T/C (dose: 25.0 mg/kg/injection, schedule: Q01DX009 (ip), vehicle: saline with Tween-80): 86 % of control

How did the T/C (dose: 100.0 mg/kg/injection, schedule: Q01DX009 (ip), vehicle: Klucel (hydroxypropylcellulose) (HPC)) turn out when `CC(C)CCC(C)C1CCC2C3CC([N+](=O)[O-])=C4CC(OC(=O)c5ccccc5)CCC4(C)C3CCC12C` (stereo not drawn) was run?
Its T/C is 105 % of control.

What about the T/C (dose: 200.0 mg/kg/injection, schedule: Q01DX009 (ip), vehicle: Klucel (hydroxypropylcellulose) (HPC)) of the same molecule?
Its T/C is 110 % of control.

What about the T/C (dose: 400.0 mg/kg/injection, schedule: Q01DX009 (ip), vehicle: Klucel (hydroxypropylcellulose) (HPC)) of the same molecule?
The T/C was 105 % of control.

`NCC(=O)NC(CO)C(=O)O` (stereo not drawn) was tested. Which T/C [1] did it give?
Its T/C is 90 % of control.

What about the T/C (dose: 100.0 mg/kg/injection, schedule: Q04DX003 (ip), vehicle: saline) of the same molecule?
The T/C was 100 % of control.

And the T/C [2]?
The T/C was 106 % of control.

And the T/C (dose: 200.0 mg/kg/injection, schedule: Q04DX003 (ip), vehicle: saline)?
The T/C was 102 % of control.

And the T/C [3]?
Its T/C is 95 % of control.

And the T/C (dose: 400.0 mg/kg/injection, schedule: Q04DX003 (ip), vehicle: saline)?
Its T/C is 95 % of control.

For `CCC(=O)[O][Bi]([c]1ccccc1)[c]1ccccc1`, which T/C (dose: 3.0 mg/kg/injection, schedule: Q01DX009 (ip), vehicle: Klucel (hydroxypropylcellulose) (HPC)) is on record?
The T/C was 90 % of control.

What about the T/C (dose: 6.0 mg/kg/injection, schedule: Q01DX009 (ip), vehicle: Klucel (hydroxypropylcellulose) (HPC)) of the same molecule?
Its T/C is 99 % of control.

What about the T/C (dose: 12.0 mg/kg/injection, schedule: Q01DX009 (ip), vehicle: Klucel (hydroxypropylcellulose) (HPC)) of the same molecule?
Its T/C is 94 % of control.

What about the T/C (dose: 24.0 mg/kg/injection, schedule: Q01DX009 (ip), vehicle: Klucel (hydroxypropylcellulose) (HPC)) of the same molecule?
Its T/C is 91 % of control.

How did the T/C [1] turn out when `OC1COCOC1` (tested in a mixture with another compound) was run?
The T/C was 115 % of control.

What about the T/C [2] of the same molecule?
Its T/C is 106 % of control.

And the T/C [3]?
Its T/C is 106 % of control.

What does the source list for `Cn1c2nc3ccccc3c-2nc2ccccc21`?
T/C (dose: 1.56 mg/kg/injection, schedule: Q01DX009 (ip), vehicle: water): 95 % of control; T/C (dose: 3.13 mg/kg/injection, schedule: Q01DX009 (ip), vehicle: water): 96 % of control; T/C (dose: 6.25 mg/kg/injection, schedule: Q01DX009 (ip), vehicle: other): 105 % of control; T/C (dose: 6.25 mg/kg/injection, schedule: Q01DX009 (ip), vehicle: water): 90 % of control; T/C (dose: 12.5 mg/kg/injection, schedule: Q01DX009 (ip), vehicle: other): 104 % of control; T/C (dose: 25.0 mg/kg/injection, schedule: Q01DX009 (ip), vehicle: other): 97 % of control; T/C (dose: 50.0 mg/kg/injection, schedule: Q01DX009 (ip), vehicle: Klucel (hydroxypropylcellulose) (HPC)): 87 % of control; T/C (dose: 50.0 mg/kg/injection, schedule: Q01DX009 (ip), vehicle: other): 92 % of control
